Source: US20160228452A1, “TREATMENT OF METABOLIC DISEASES BY INHIBTION OF HTR2A OR HTR3” (Korea Advanced Institute of Science and Technology, priority 2014, published 2016)
“Also recorded” adds a separate entry of the source.

Assays:
[1] = intraventricular injection, reference 19; cited from earlier work
[2] = Metabolic analysis by indirect calorimetry (Oxymax/CLAMS); type: in vivo, mice
Protocol: (§1) To measure the metabolic rate, the mice were housed individually in an eight-chamber, open-circuit Oxymax/CLAMS (Columbus Instruments Comprehensive Lab Animal Monitoring System) system as previously described^33. Each mouse was assessed for 72 h in the fed state to determine their metabolic rates. PET imaging was performed using a microPET R4 scanner (Concorde Microsystems, Siemens) as previously described^34.

[3] = tested on: genes involved in lipid metabolism and thermogenesis; assay: Real-time RT-PCR of mouse adipose tissues; type: in vivo, mice
Protocol: Total RNA was extracted from the mouse tissues or cell lines using TRIzol reagent (Invitrogen) according to the manufacturer's protocol. After TURBO DNase (Invitrogen) treatment, 2 μg of total RNA was used to generate complementary DNA with Superscript III reverse transcriptase (Invitrogen). To analyze gene expression, real-time PCR was performed with a ViiA 7 Real-Time PCR system (Applied Biosystems) and the Power SYBR Green PCR master mix (Applied Biosystems). Relative quantification was based on the ddCt method, and ActB was used as an endogenous control (internal control).

[4] = Glucose tolerance test and insulin tolerance test; type: in vivo, mice; conditions: PCPA-treated HFD-fed mice vs HFD-fed control
Protocol: For the glucose tolerance tests, the mice were administered 2 g/kg D-glucose in PBS after overnight fasting. For the insulin tolerance tests, the mice were intraperitoneally injected with insulin (0.75 U/kg) after being fasted for 4 h. The blood glucose levels in blood samples obtained from tail veins 0, 15, 30, 45, 60, 90 and 120 min after injection were measured using a Gluco DR Plus glucometer (Allmedicus).

[5] = High-fat-diet-induced obesity in mice: growth curves, body weight and eWAT mass; type: in vivo; conditions: PCPA 300 mg/kg daily i.p., 10 weeks, HFD-fed mice vs HFD-fed control
Excerpt: The generation of Tph^flox/flox mice, Adipoq-cre mice, and aP2-CreERT2 mice has previously been reported^17,30,31. C57BL/6J mice, Htr3a-targeted KO mice (B6.129X1-Htr3a^tm1jul/J, Htr3a KO) and leptin-deficient ob/ob mice (B6.V-Lep^ob/J) were purchased from the Jackson Laboratory (Bar Harbor, Me., USA). To create the adipose tissue-specific Tph1 KO mice, Tph1^flox/flox mice were crossed with Adipoq-Cre mice (Tph1 FKO mice) and aP2-CreERT2 mice (Tph1 AFKO mice). The mice were housed in climate-controlled, specific pathogen-free (SPF) barrier facilities under a 12-h light-dark cycle, and chow and water were provided ad libitum. The Institutional Animal Care and Use Committee at the Korea Advanced Institute of Science and Technology approved the experimental protocols for this study. Htr3a KO mice and Tph1^flox/flox mice were backcrossed with C57BL/6J mice for more than 10 generations. Cre-recombination of 6-week-old Tph1 AFKO mice was induced by intraperitoneal (IP) injection of 5 doses of 2 mg of tamoxifen (Sigma) for 1 week. We fed male mice (aged 8˜10 weeks) either on SCD (standard chow diet; 12% fat calories, Purina Laboratory Rodent Diets 38057) or HFD (60% fat calories, Research Diets D12492). PBS or 300 mg/kg PCPA was administered as a daily intraperitoneal injection. LP-533401 was dissolved in PEG-400 and 5% dextrose (40:60 ratio). Vehicle or 30 mg/kg LP-533401 was administered daily with a feeding needle. We randomly divided C57BL/6J mice into 2-4 groups. For transgenic mice, we compared data between KO mice and their WT littermates. No blinding was done.

BAT = assay: 18F-FDG PET/CT glucose utilization of BAT; type: in vivo; conditions: PCPA-treated HFD-fed mice vs HFD-fed control
Protocol: as §1

eWAT, iWAT and BAT = assay: Histological analysis of adipose tissues (H&E, Ucp1/Plin1 immunohistochemistry, TEM); type: in vivo, mice
Protocol: Inguinal, epididymal and interscapular adipose tissues were harvested, fixed in 4% (w/v) paraformaldehyde in PBS and embedded in paraffin. Then, 5-μm-thick tissue sections were deparaffinized, rehydrated and used for hematoxylin and eosin (H&E) staining, immunohistochemistry and immunofluorescence. For antigen retrieval, the slides were submerged in 10 mM sodium citrate (pH 6.0) and heated to 95° C. for 20 minutes. Visualization of Ucp1 and Plin1 was performed using a VECTASTAIN ABC Kit (PK-4001, Vector Laboratories, Burlingame, Calif., USA) according to the manufacturer's instructions. Briefly, the slides were incubated with BLOXALL Blocking solution (SP-6000, Vector Laboratories) followed by incubation with 2% normal goat serum for 30 min at room temperature to block non-specific binding. Sections were incubated with primary antibody against Ucp1 (ab10983, Abcam) or Plin1 (ab3526, Abcam) for 1 h at room temperature followed by 30-min incubation with a species-specific, biotinylated secondary antibody. The slides were incubated with Vectastain ABC-AP reagent for 30 min and then incubated with […] substrate (DAB, SK-4100, Vector Laboratories) for visualization. The stains and antibodies used for the immunofluorescence staining included BODIPY (BODIPY®493/503, Invitrogen), anti-5HT (ab10385, Abcam) and DAPI (D9542, Sigma). Electron microscopy images of BAT were obtained by transmission electron microscopy (Tecnai Spirit TEM) as previously described^35. Briefly, the BAT was first fixed with 2.5% glutaraldehyde, and after fixation, ultra-thin sections were cut, stained with uranyl acetate and lead citrate and then examined under an electron microscope.

[6] = Blood chemistry analysis (serum cholesterol, LDL cholesterol, FFA, leptin by ELISA); type: in vivo; conditions: PCPA 300 mg/kg, 6 weeks, HFD-fed mice vs HFD-fed control
Protocol: Tissue serotonin was extracted by homogenization in extraction buffer containing 0.02% ascorbic acid in 0.1 M perchloric acid followed by centrifugation. The serotonin levels in the supernatants were measured via the liquid chromatography-mass spectrometry method. Serum leptin (Enzo Life Science, Farmingdale, N.Y., USA), LDL-cholesterol (Waco), and FFA (Biovision, Mountain View, Calif., USA) were measured using enzyme-linked immunosorbent assay (ELISA) kits.

[7] = PCPA-treated vs control mice, HFD for 6 weeks

In the case of `N[C@@H](Cc1ccc(Cl)cc1)C(=O)O` (racemic) [PCPA, p-chlorophenylalanine], the appetite [1] is given as “reduce appetite”, the body weight [1] is given as “increase body weight” and the “metabolic rates (metabolic cage data) on standard chow diet” value ([2]; PCPA 300 mg/kg for 6 weeks vs vehicle, SCD-fed mice) is given as “did not affect the metabolic rates; also recorded: no significant differences”. For the same compound, the O2 consumption [2, 7] was “increased”, the “carbon dioxide production (VCO2)” value [2, 7] was “increased carbon dioxide production” and the energy expenditure [2, 7] was “increased energy expenditure”. For the same compound, the heat production [2, 7] was “increased”, the “Dio2 mRNA level in BAT” value ([3]; PCPA 300 mg/kg, 6 weeks) was “highest increase” and the “thermogenic gene expression in BAT” value ([3]; PCPA 300 mg/kg, 6 weeks) was “increased thermogenic gene expression”. The “Dio2 mRNA level in iWAT” value ([3]; PCPA-treated mice fed an HFD) was “increased”, the “Ucp1 mRNA level in iWAT” value ([3]; PCPA-treated mice fed an HFD) was “increased” and the “expression of lipogenic (triglyceride storage) genes in eWAT” value ([3]; PCPA-treated vs control mice, both SCD and HFD) was “suppressed expression”. The glucose tolerance ([4]; 2 g/kg glucose after overnight fasting) was “improved glucose tolerance”, the “insulin sensitivity / insulin resistance” value ([4]; insulin 0.75 U/kg after 4 h fasting) was “improved; also recorded: reduced insulin resistance” and the body weight gain [5] was “decreased weight gain; also recorded: reduction in body weight gain”. The eWAT mass [5] was “reduced eWAT mass; also recorded: decreased eWAT”, the “glucose (18F-FDG) uptake into BAT” value (BAT) was “significantly increased glucose uptake” and the “iWAT adipocyte size, HFD vs SCD within PCPA-treated mice” value (eWAT, iWAT and BAT; 18-week-old PCPA-treated mice, HFD for 10 weeks compared with PCPA-treated mice fed an SCD) was “decreased adipocyte size”. The “number and size of mitochondria in BAT (TEM)” value (eWAT, iWAT and BAT; HFD-fed mice with PCPA treatment for 6 weeks) was “increased size and number of mitochondria”, the “eWAT cellular structure / cell damage (Plin1 staining)” value (eWAT, iWAT and BAT; PCPA 300 mg/kg for 6 weeks, SCD or HFD) was “normal cellular structures; also recorded: No gross cell damage was observed” and the “browning of iWAT (Ucp1-expressing multilocular cells)” value (eWAT, iWAT and BAT; PCPA-treated mice) was “brown adipocyte-like multilocular cells that expressed Ucp1 were observed”. The “density of the cristae in BAT mitochondria” value (eWAT, iWAT and BAT; PCPA-treated mice) was “increased”, the iWAT adipocyte size (eWAT, iWAT and BAT; PCPA-treated mice) was “decreased” and the “multilocular adipocytes in BAT” value (eWAT, iWAT and BAT; PCPA-treated mice, HFD) was “increased multilocular adipocytes”. For the same compound, the “BAT lipid droplet size” value (eWAT, iWAT and BAT; PCPA-treated vs control BAT, regardless of diet) was “decreased lipid droplet sizes”, the eWAT adipocyte size (eWAT, iWAT and BAT; PCPA-treated vs control mice, SCD or HFD) was “decreased adipocyte size; also recorded: did not increase the adipocyte size” and the “blood level of LDL cholesterol” value [6] was “decreased”. The “blood level of free fatty acid (FFA)” value [6] was “decreased; also recorded: reduced”, the “blood level of leptin” value [6] was “decreased; also recorded: reduced” and the serum cholesterol [6] was “reduced”.
